# Read-outs that look alike come from different tables or passages of the source.
# Legend:
# [1] = tested on: chloroquine-sensitive NF54 strain of P. falciparum; experiment: In vitro antimalarial semiautomated microdilution assay ([3H]-hypoxanthine incorporation), NF54 strain; format: cell-based, Plasmodium falciparum; settings: for IC50: Plasmodium falciparum
# Summary of the method: (§1)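 Asynchronous stock-culture parasites (intraerythrocytic forms), serial compound dilutions; readout [3H]-hypoxanthine uptake; IC50 via Logit regression.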
# [2] = tested on: ANKA strain of P. berghei; experiment: Single dose STI in vivo screen in infected mice; set-up: species or system Plasmodium berghei; settings: for Survival (days) 3 mg/kg SSV po / Activity (%) 3 mg/kg SSV po: single 3 mg/kg po in SSV; for Activity (%) 3 mg/kg SSV po / Activity (%) 10 mg/kg SSV po / Activity (%) 10 mg/kg po / Activity (%) 10 mg/kg sc: percent reduction in parasitemia on day 3; for Survival (days) 10 mg/kg SSV po: single 10 mg/kg po in SSV; for Survival (days) 10 mg/kg SSV po / Survival (days) 10 mg/kg po / Survival (days) 10 mg/kg sc: untreated 6-7 days; for Activity (%) 10 mg/kg SSV po: single 10 mg/kg po in standard suspending vehicle (SSV) on day 1 post-infection; for Activity (%) 10 mg/kg po: single 10 mg/kg po in 3% ethanol and 7% Tween 80 on day 1 post-infection; for Activity (%) 10 mg/kg sc: single 10 mg/kg sc in 3% ethanol and 7% Tween 80 on day 1 post-infection; for Survival (days) 10 mg/kg po: single 10 mg/kg po in 3% ethanol and 7% Tween 80; for Survival (days) 10 mg/kg sc: single 10 mg/kg sc in 3% ethanol and 7% Tween 80
# [3] = tested on: chloroquine-resistant K1 strain of P. falciparum; experiment: In vitro antimalarial semiautomated microdilution assay ([3H]-hypoxanthine incorporation), K1 strain; format: cell-based, Plasmodium falciparum; settings: for IC50: Plasmodium falciparum
# Summary of the method: as §1
# [4] = chloroquine-sensitive NF54 strain, 72 h incubation, read-out: IC50 (ng/ml) NF54
# [5] = chloroquine-resistant K1 strain, 72 h incubation, read-out: IC50 (ng/ml) K1
# [6] = NF54, 72 h, read-out: IC50 (ng/ml) NF54, chloroquine-sensitive NF54 strain, 72 h incubation
# [7] = K1, 72 h, read-out: IC50 (ng/ml) K1, chloroquine-resistant K1 strain, 72 h incubation
Compound,"IC50 [1, 4]",Survival (days) 3 mg/kg SSV po [2],Activity (%) 3 mg/kg SSV po [2],Survival (days) 10 mg/kg SSV po [2],Activity (%) 10 mg/kg SSV po [2],"IC50 [3, 5]","IC50 [1, 6]",Activity (%) 10 mg/kg po [2],Activity (%) 10 mg/kg sc [2],"IC50 [3, 7]",Survival (days) 10 mg/kg po [2],Survival (days) 10 mg/kg sc [2],"IC50 (ng/ml) NF54 ([1]; chloroquine-sensitive NF54 strain, 72 h incubation, hydrochloride)","Survival (days) 10 mg/kg po ([2]; hydrochloride, 10 mg/kg)","Activity (%) 10 mg/kg po ([2]; hydrochloride, 10 mg/kg)","Survival (days) 10 mg/kg SSV po ([2]; hydrochloride, 10 mg/kg)","Activity (%) 10 mg/kg SSV po ([2]; hydrochloride, 10 mg/kg)","Survival (days) 10 mg/kg sc ([2]; hydrochloride, 10 mg/kg)","Activity (%) 10 mg/kg sc ([2]; hydrochloride, 10 mg/kg)","IC50 (ng/ml) K1 ([3]; chloroquine-resistant K1 strain, 72 h incubation, hydrochloride)"
c1ccc(CNC[C@H]2CC[C@]3(CC2)OO[C@]2(O3)C3CC4CC(C3)CC2C4)nc1 [OZ292],0.26 ng/mL,6.6 days,46%,7.0 days,74%,0.19 ng/mL,–,–,–,–,–,–,–,–,–,–,–,–,–,–
CCOC(=O)c1ccc([C@H]2CC[C@]3(CC2)OOC2(O3)C3CC4CC(C3)CC2C4)cc1 (some centres unmarked) [OZ164],–,–,–,5.7 days,0%,–,> 10 ng/mL,11%,7%,9 ng/mL,–,–,–,–,–,–,–,–,–,–
"O=S(=O)(c1cccc2cccnc12)N1CCC2(CC1)OOC1(O2)C2CC3CC(C2)CC1C3 (centres unmarked) [OZ114, Adamantane-2-spiro-3′-8′-(8′-quinolinesulfonyl)-1′,2′,4′-trioxa-8′-azaspiro[4.5]decane]",–,–,–,6.0 days,0%,–,2.2 ng/mL,0%,99.64%,3.7 ng/mL,5.7 days,8.7 days,–,–,–,–,–,–,–,–
CC1(C)COC(c2ccc([C@H]3CC[C@]4(CC3)OOC3(O4)C4CC5CC(C4)CC3C5)cc2)=N1 (some centres unmarked) [OZ180],–,–,–,–,–,–,–,–,–,–,–,–,2.8 ng/mL,13.7 days,99.91%,12.7 days,97%,10.3 days,65%,3.7 ng/mL
O=C1c2ccccc2C(=O)N1C[C@H]1CC[C@@]2(CC1)OOC1(O2)C2CC3CC(C2)CC1C3 (some centres unmarked) [OZ167],–,–,–,6.0 days,6%,–,> 10 ng/mL,0%,97%,6.7 ng/mL,6.0 days,7.3 days,–,–,–,–,–,–,–,–
CC(C)(N)CNC[C@H]1CC[C@]2(CC1)OOC1(O2)C2CC3CC(C2)CC1C3 (some centres unmarked) [OZ287],0.83 ng/mL,7.2 days,68%,8.3 days,95%,0.49 ng/mL,–,–,–,–,–,–,–,–,–,–,–,–,–,–
NOC[C@H]1CC[C@]2(CC1)OO[C@]1(O2)C2CC3CC(C2)CC1C3 [OZ334],–,6.6 days,13%,6.8 days,47%,–,20 ng/mL,–,–,28 ng/mL,–,–,–,–,–,–,–,–,–,–
O=C1c2ccccc2S(=O)(=O)N1C[C@H]1CC[C@]2(CC1)OOC1(O2)C2CC3CC(C2)CC1C3 (some centres unmarked) [OZ212],2.9 ng/mL,–,–,6.7 days,25%,2.7 ng/mL,–,66%,59%,–,6.7 days,8.0 days,–,–,–,–,–,–,–,–
NC1(C(=O)NC[C@H]2CC[C@]3(CC2)OO[C@]2(O3)C3CC4CC(C3)CC2C4)CCCCC1 [OZ333],0.44 ng/mL,8.0 days,96%,9.2 days,–,0.24 ng/mL,–,–,–,–,–,–,–,–,–,–,–,–,–,–
CCOC(=O)c1ccc(OC[C@H]2CC[C@]3(CC2)OOC2(O3)C3CC4CC(C3)CC2C4)cc1 (some centres unmarked) [OZ166],–,–,–,6.3 days,0%,–,> 10 ng/mL,11%,4%,28 ng/mL,6.7 days,5.7 days,–,–,–,–,–,–,–,–
O=C(O)c1ccc(OC[C@H]2CC[C@]3(CC2)OOC2(O3)C3CC4CC(C3)CC2C4)cc1 (some centres unmarked) [OZ176],–,–,–,7.7 days,18%,–,35 ng/mL,11%,24%,25 ng/mL,7.0 days,7.0 days,–,–,–,–,–,–,–,–
"C=C1COC2(CCC3(CC2)OOC2(O3)C3CC4CC(C3)CC2C4)OC1 (centres unmarked) [OZ128, Adamantane-2-spiro-3′-11′-methylene-1′,2′,4′,9′,13′-pentaoxadispiro[4.2.5.2]pentadecane]",–,–,–,8.7 days,99.95%,–,1.1 ng/mL,99.93%,99.98%,0.59 ng/mL,8.3 days,11.7 days,–,–,–,–,–,–,–,–
O=C(NO)c1ccc([C@H]2CC[C@]3(CC2)OOC2(O3)C3CC4CC(C3)CC2C4)cc1 (some centres unmarked) [OZ183],–,–,–,6.0 days,19%,–,2.1 ng/mL,65%,81%,0.8 ng/mL,6.0 days,8.3 days,–,–,–,–,–,–,–,–
O=C(O)CCC(=O)NC[C@H]1CC[C@]2(CC1)OO[C@]1(O2)C2CC3CC(C2)CC1C3 [OZ300],97 ng/mL,7.0 days,0%,6.8 days,6%,71 ng/mL,–,–,–,–,–,–,–,–,–,–,–,–,–,–
O=C1CN(C[C@H]2CC[C@]3(CC2)OOC2(O3)C3CC4CC(C3)CC2C4)CCN1 (some centres unmarked) [OZ285],1.8 ng/mL,7.6 days,72%,8.7 days,99.81%,1.3 ng/mL,–,–,–,–,–,–,–,–,–,–,–,–,–,–
"COC(=O)c1ccc(C2(c3ccccc3)OOC3(O2)C2CC4CC(C2)CC3C4)cc1 (centres unmarked) [OZ138, Adamantane-2-spiro-3′-5′-[4′-(methoxycarbonyl)phenyl]-5′-phenyl-1′,2′,4′-trioxolane]",–,–,–,6.3 days,5%,–,19 ng/mL,0%,7%,10 ng/mL,5.7 days,6.3 days,–,–,–,–,–,–,–,–
C1CC1CNC1CCC2(CC1)OOC1(O2)C2CC3CC(C2)CC1C3 (centres unmarked) [OZ184],–,–,–,7.0 days,59%,–,1.4 ng/mL,54%,97%,1 ng/mL,6.7 days,8.7 days,–,–,–,–,–,–,–,–
CS(=O)(=O)c1ccc([C@H]2CC[C@]3(CC2)OOC2(O3)C3CC4CC(C3)CC2C4)cc1 (some centres unmarked) [OZ178],–,–,–,7.3 days,23%,–,27 ng/mL,32%,31%,21 ng/mL,7.3 days,10.0 days,–,–,–,–,–,–,–,–
O=C(O)c1cn(C[C@H]2CC[C@]3(CC2)OOC2(O3)C3CC4CC(C3)CC2C4)cn1 (some centres unmarked) [OZ225],> 10 ng/mL,–,–,5.7 days,0%,7.3 ng/mL,–,0%,17%,–,5.7 days,6.3 days,–,–,–,–,–,–,–,–
CS(=O)(=O)C[C@H]1CC[C@]2(CC1)OO[C@]1(O2)C2CC3CC(C2)CC1C3 [OZ307],–,7.8 days,74%,9.4 days,98%,–,0.88 ng/mL,–,–,0.62 ng/mL,–,–,–,–,–,–,–,–,–,–

# Reference: patent US6825230B2, “Spiro and dispiro 1,2,4-trixolane antimalarials” (Medicines for Malaria Venture MMV, priority 2002, dated 2004)
